# Experimental data from patent US10638756B2, “Molecules having pesticidal utility, and intermediates, compositions, and processes, related thereto” (Dow AgroSciences LLC, priority 2017, dated 2020).
# Legend:
# [1] = system: Cabbage Looper (Trichoplusia ni); assay: Bioassay on Cabbage Looper (CL), 128-well diet tray assay; format: in vivo; conditions: 168 h, 50 μg/cm^2 on artificial diet, second instar larvae, five to seven days, read-out: CL % Control (or Mortality) rating
# Method: (§1) Certain molecules disclosed in this document were tested against BAW and CL using procedures described in the following examples. In the reporting of the results, the “BAW & CL Rating Table” was used (See Table Section).
# Bioassays on CL were conducted using a 128-well diet tray assay. One to five second instar CL larvae were placed in each well (3 mL) of the diet tray that had been previously filled with 1 mL of artificial diet to which 50 μg/cm^2 of the test molecule (dissolved in 50 μL of 90:10 acetone-water mixture) had been applied (to each of eight wells) and then allowed to dry. Trays were covered with a clear self-adhesive cover, vented to allow gas exchange, and held at 25° C., 14:10 light-dark for five to seven days. Percent mortality was recorded for the larvae in each well; activity in the eight wells was then averaged. The results are indicated in the table entitled “Table ABC: Biological Results” (See Table Section).
# [2] = system: Beet Armyworm (Spodoptera exigua); assay: Bioassay on Beet Armyworm (BAW), 128-well diet tray assay; format: in vivo; conditions: for mortality at 50 µg/cm2: Spodoptera exigua, 168 h, 50 μg/cm^2 on artificial diet, second instar larvae, five to seven days, read-out: BAW % Control (or Mortality) rating
# Method: as §1
# Bioassays on BAW were conducted using a 128-well diet tray assay. […] Trays were covered with a clear self-adhesive cover, vented to allow gas exchange, and held at 25° C., 14:10 light-dark for five to seven days. Percent mortality was recorded for the larvae in each well; activity in the eight wells was then averaged. The results are indicated in the table entitled “Table ABC: Biological Results” (See Table Section).
smiles,measurement,setting,value
"CN(NC(=O)c1ccc(/C(F)=C/C(c2cc(Cl)cc(C(F)(F)F)c2)C(F)(F)F)cc1C(F)(F)F)c1ncccn1 (stereo not shown) [F83, (Z)-4-(3-(3-Chloro-5-(trifluoromethyl)phenyl)-1,4,4,4-tetrafluorobut-1-en-1-yl)-N′-methyl-N′-(pyrimidin-2-yl)-2-(trifluoromethyl)benzohydrazide]",mortality at 50 µg/cm2,[1],50 to 100%
same,mortality at 50 µg/cm2,[2],50 to 100%
"O=C(NNc1ccc(F)cc1F)c1ccc(/C(F)=C/C(c2cc(Cl)c(Cl)c(Cl)c2)C(F)(F)F)cc1C(F)(F)F (stereo not shown) [F26, (Z)—N′-(2,4-Difluorophenyl)-4-(1,4,4,4-tetrafluoro-3-(3,4,5-trichlorophenyl)but-1-en-1-yl)-2-(trifluoromethyl)benzohydrazide]",mortality at 50 µg/cm2,[1],50 to 100%
same,mortality at 50 µg/cm2,[2],50 to 100%
"O=C(NNc1ccncc1)c1ccc(/C(F)=C/C(c2cc(Cl)c(Cl)c(Cl)c2)C(F)(F)F)cc1C(F)(F)F (stereo not shown) [F57, (Z)—N′-(Pyridin-4-yl)-4-(1,4,4,4-tetrafluoro-3-(3,4,5-trichlorophenyl)but-1-en-1-yl)-2-(trifluoromethyl)benzohydrazide]",mortality at 50 µg/cm2,[1],50 to 100%
same,mortality at 50 µg/cm2,[2],50 to 100%
"O=C(NNc1nc(Cl)nc(Cl)n1)c1ccc(/C(F)=C/C(c2cc(Cl)c(Cl)c(Cl)c2)C(F)(F)F)cc1C(F)(F)F (stereo not shown) [F13, (Z)—N′-(4,6-Dichloro-1,3,5-triazin-2-yl)-4-(1,4,4,4-tetrafluoro-3-(3,4,5-trichlorophenyl)but-1-en-1-yl)-2-(trifluoromethyl)benzohydrazide]",mortality at 50 µg/cm2,[1],50 to 100%
same,mortality at 50 µg/cm2,[2],50 to 100%
"O=C(NNc1ccc(Cl)cn1)c1ccc(/C(F)=C/C(c2cc(Cl)c(Cl)c(Cl)c2)C(F)(F)F)cc1C(F)(F)F (stereo not shown) [F93, (Z)—N′-(5-Chloropyridin-2-yl)-4-(1,4,4,4-tetrafluoro-3-(3,4,5-trichlorophenyl)but-1-en-1-yl)-2-(trifluoromethyl)benzohydrazide]",mortality at 50 µg/cm2,[1],50 to 100%
same,mortality at 50 µg/cm2,[2],50 to 100%
"O=C(NNc1cncc(Cl)n1)c1ccc(/C(F)=C/C(c2cc(Cl)c(Cl)c(Cl)c2)C(F)(F)F)cc1C(F)(F)F (stereo not shown) [F104, (Z)—N′-(6-Chloropyrazin-2-yl)-4-(1,4,4,4-tetrafluoro-3-(3,4,5-trichlorophenyl)but-1-en-1-yl)-2-(trifluoromethyl)benzohydrazide]",mortality at 50 µg/cm2,[1],50 to 100%
same,mortality at 50 µg/cm2,[2],50 to 100%
"COc1cnc(N(C)NC(=O)c2ccc(/C(F)=C/C(c3cc(Cl)c(Cl)c(Cl)c3)C(F)(F)F)cc2C(F)(F)F)nc1 (stereo not shown) [F12, (Z)—N′-(5-Methoxypyrimidin-2-yl)-N′-methyl-4-(1,4,4,4-tetrafluoro-3-(3,4,5-trichlorophenyl)but-1-en-1-yl)-2-(trifluoromethyl)benzohydrazide]",mortality at 50 µg/cm2,[1],50 to 100%
same,mortality at 50 µg/cm2,[2],50 to 100%
"O=C(NNc1cccc(F)n1)c1ccc(/C(F)=C/C(c2cc(Cl)c(Cl)c(Cl)c2)C(F)(F)F)cc1C(F)(F)F (stereo not shown) [F34, (Z)—N′-(6-Fluoropyridin-2-yl)-4-(1,4,4,4-tetrafluoro-3-(3,4,5-trichlorophenyl)but-1-en-1-yl)-2-(trifluoromethyl)benzohydrazide]",mortality at 50 µg/cm2,[1],50 to 100%
same,mortality at 50 µg/cm2,[2],50 to 100%
"O=C(NNCC(F)(F)F)c1ccc(/C(F)=C/C(c2cc(Cl)c(Cl)c(Cl)c2)C(F)(F)F)cc1C(F)(F)F (stereo not shown) [F49, (Z)-4-(1,4,4,4-tetrafluoro-3-(3,4,5-trichlorophenyl)but-1-en-1-yl)-N′-(2,2,2-trifluoroethyl)-2-(trifluoromethyl)benzohydrazide]",mortality at 50 µg/cm2,[1],50 to 100%
same,mortality at 50 µg/cm2,[2],50 to 100%
"O=C(NNc1ncccn1)c1ccc(/C(F)=C/C(c2ccc(F)c(C(F)(F)F)c2)C(F)(F)F)cc1C(F)(F)F (stereo not shown) [F32, (Z)—N′-(Pyrimidin-2-yl)-4-(1,4,4,4-tetrafluoro-3-(4-fluoro-3-(trifluoromethyl)phenyl)but-1-en-1-yl)-2-(trifluoromethyl)benzohydrazide]",mortality at 50 µg/cm2,[1],50 to 100%
same,mortality at 50 µg/cm2,[2],50 to 100%
"O=C(/N=N/c1ncccn1)c1ccc(/C(F)=C/C(c2cc(Cl)c(Cl)c(Cl)c2)C(F)(F)F)cc1C(F)(F)F (stereo not shown) [F192, ((E)-pyrimidin-2-yldiazenyl)(4-((Z)-1,4,4,4-tetrafluoro-3-(3,4,5-trichlorophenyl)but-1-en-1-yl)-2-(trifluoromethyl)phenyl)methanone]",mortality at 50 µg/cm2,[1],50 to 100%
same,mortality at 50 µg/cm2,[2],50 to 100%
"O=C(NNc1ncccn1)c1ccc(/C(F)=C/C(c2ccc(C(F)(F)F)c(Cl)c2)C(F)(F)F)cc1C(F)(F)F (stereo not shown) [F167, (Z)-4-(3-(3-Chloro-4-(trifluoromethyl)phenyl)-1,4,4,4-tetrafluorobut-1-en-1-yl)-N′-(pyrimidin-2-yl)-2-(trifluoromethyl)benzohydrazide]",mortality at 50 µg/cm2,[1],50 to 100%
same,mortality at 50 µg/cm2,[2],50 to 100%
"NN(CC1CC1)C(=O)c1ccc(/C(F)=C/C(c2cc(Cl)c(Cl)c(Cl)c2)C(F)(F)F)cc1C(F)(F)F (stereo not shown) [F98, (Z)—N-(Cyclopropylmethyl)-4-(1,4,4,4-tetrafluoro-3-(3,4,5-trichlorophenyl)but-1-en-1-yl)-2-(trifluoromethyl)benzohydrazide]",mortality at 50 µg/cm2,[1],50 to 100%
same,mortality at 50 µg/cm2,[2],50 to 100%
"O=C(NNC1=NCCN1)c1ccc(/C(F)=C/C(c2cc(Cl)c(Cl)c(Cl)c2)C(F)(F)F)cc1C(F)(F)F (stereo not shown) [F116, (Z)—N′-(4,5-Dihydro-1H-imidazol-2-yl)-4-(1,4,4,4-tetrafluoro-3-(3,4,5-trichlorophenyl)but-1-en-1-yl)-2-(trifluoromethyl)benzohydrazide]",mortality at 50 µg/cm2,[1],50 to 100%
same,mortality at 50 µg/cm2,[2],50 to 100%
"CN(NC(=O)c1ccc(/C(F)=C/[C@H](c2cc(Cl)c(Cl)c(Cl)c2)C(F)(F)F)cc1C(F)(F)F)c1ncccn1 (single isomer, unassigned) [F29]",mortality at 50 µg/cm2,[1],50 to 100%
same,mortality at 50 µg/cm2,[2],50 to 100%
"Cc1cc(C)nc(NNC(=O)c2ccc(/C(F)=C/C(c3cc(Cl)c(Cl)c(Cl)c3)C(F)(F)F)cc2C(F)(F)F)n1 (stereo not shown) [F85, (Z)—N′-(4,6-Dimethylpyrimidin-2-yl)-4-(1,4,4,4-tetrafluoro-3-(3,4,5-trichlorophenyl)but-1-en-1-yl)-2-(trifluoromethyl)benzohydrazide]",mortality at 50 µg/cm2,[1],50 to 100%
same,mortality at 50 µg/cm2,[2],50 to 100%
"CN(NC(=O)c1ccc(/C(F)=C/C(c2ccc(Br)c(Cl)c2)C(F)(F)F)cc1C(F)(F)F)c1ncccn1 (stereo not shown) [F125, (Z)-4-(3-(4-Bromo-3-chlorophenyl)-1,4,4,4-tetrafluorobut-1-en-1-yl)-N′-methyl-N′-(pyrimidin-2-yl)-2-(trifluoromethyl)benzohydrazide]",mortality at 50 µg/cm2,[1],50 to 100%
same,mortality at 50 µg/cm2,[2],50 to 100%
"O=C(NNc1c(Cl)cccc1Cl)c1ccc(/C(F)=C/C(c2cc(Cl)c(Cl)c(Cl)c2)C(F)(F)F)cc1C(F)(F)F (stereo not shown) [F129, (Z)—N′-(2,6-dichlorophenyl)-4-(1,4,4,4-tetrafluoro-3-(3,4,5-trichlorophenyl)but-1-en-1-yl)-2-(trifluoromethyl)benzohydrazide]",mortality at 50 µg/cm2,[1],50 to 100%
same,mortality at 50 µg/cm2,[2],50 to 100%
"O=C(Nn1cccc1)c1ccc(/C(F)=C/C(c2cc(Cl)c(Cl)c(Cl)c2)C(F)(F)F)cc1C(F)(F)F (stereo not shown) [F51, (Z)—N-(1H-Pyrrol-1-yl)-4-(1,4,4,4-tetrafluoro-3-(3,4,5-trichlorophenyl)but-1-en-1-yl)-2-(trifluoromethyl)benzamide]",mortality at 50 µg/cm2,[1],50 to 100%
same,mortality at 50 µg/cm2,[2],50 to 100%
"CN(NC(=O)c1ccc(/C(F)=C/C(c2cc(Cl)c(Cl)c(Cl)c2)C(F)(F)F)cc1C(F)(F)F)c1ccccn1 (stereo not shown) [F59, (Z)—N′-Methyl-N′-(pyridin-2-yl)-4-(1,4,4,4-tetrafluoro-3-(3,4,5-trichloro-phenyl)but-1-en-1-yl)-2-(trifluoromethyl)benzohydrazide]",mortality at 50 µg/cm2,[1],50 to 100%
same,mortality at 50 µg/cm2,[2],50 to 100%
"CSc1nccc(NNC(=O)c2ccc(/C(F)=C/C(c3cc(Cl)c(Cl)c(Cl)c3)C(F)(F)F)cc2C(F)(F)F)n1 (stereo not shown) [F5, (Z)—N′-(2-(Methylthio)pyrimidin-4-yl)-4-(1,4,4,4-tetrafluoro-3-(3,4,5-trichlorophenyl)but-1-en-1-yl)-2-(trifluoromethyl)benzohydrazide]",mortality at 50 µg/cm2,[1],50 to 100%
same,mortality at 50 µg/cm2,[2],50 to 100%
"CC(C)N(Nc1ncccn1)C(=O)c1ccc(/C(F)=C/C(c2cc(Cl)c(Cl)c(Cl)c2)C(F)(F)F)cc1C(F)(F)F (stereo not shown) [F170, (Z)—N-Isopropyl-N′-(pyrimidin-2-yl)-4-(1,4,4,4-tetrafluoro-3-(3,4,5-trichlorophenyl)but-1-en-1-yl)-2-(trifluoromethyl)benzohydrazide]",mortality at 50 µg/cm2,[1],50 to 100%
same,mortality at 50 µg/cm2,[2],50 to 100%
"O=C(NNc1ccccc1F)c1ccc(/C(F)=C/C(c2cc(Cl)c(Cl)c(Cl)c2)C(F)(F)F)cc1C(F)(F)F (stereo not shown) [F28, (Z)—N′-(2-fluorophenyl)-4-(1,4,4,4-tetrafluoro-3-(3,4,5-trichlorophenyl)but-1-en-1-yl)-2(trifluoromethyl)benzohydrazide]",mortality at 50 µg/cm2,[1],50 to 100%
same,mortality at 50 µg/cm2,[2],50 to 100%
"O=C(NNc1ncccn1)c1ccc(/C(F)=C/C(c2cc(Cl)c(Cl)c(Cl)c2)C(F)(F)F)cc1 (stereo not shown) [1A, (Z)—N′-(Pyrimidin-2-yl)-4-(1,4,4,4-tetrafluoro-3-(3,4,5-trichlorophenyl)but-1-en-1-yl)benzohydrazide]",BAW (Table CD-1),[2]; 0.05 μg/cm^2,0
same,BAW (Table CD-1),[2]; 5.0 μg/cm^2,25
same,BAW (Table CD-1),[2]; 50 μg/cm^2,100
